Results taken from patent publication EP2664616A1, “Hydantoin and thiohydantoin derivatives as antiviral drugs” (priority 2012, dated 2013).

test system: HCV replicon Luc Neo ET; test: HCV replication inhibition assay (replicon assay, luciferase reporter); assay type: cell-based; details: Hepatitis C virus; Huh-7 cell lines containing HCV replicon Luc Neo ET; 72 hours with compound; 1 % DMSO; firefly luciferase reporter; concentration that produces 50 % of replication inhibition; read-out: EC50 Replicon LucneoET
Experimental: The compounds according to the present invention were tested for their ability to inhibit HCV replication as follows:
Huh-7 cell lines containing HCV replicon Luc Neo ET (Reblikon) were maintained in DMEM supplemented with 10% SVF, 2 mM glutamine, and 1 X NEAA, 100 U / ml penicillin, and 100 µg / ml streptomycine. Cells were maintained in medium supplemented with 0.5 mg/ml G418, at 37°C and 5% CO2 in a humidified atmosphere. Cells were dissociated at sub confluence with trypsin EDTA 1X.
Replicon Luc Neo ET is bicistronic expression constructs (Lohmann et al, 1999, Science 285, 110-113). In brief, the structural genes of the HCV genome were replaced by heterologous sequences; the gene encoding the neomycin phosphotransferase (NPT) and the internal ribosome entry site (IRES) of the encephalomyocarditis virus (EMCV). The bicistronic construct is therefore composed of the following elements: HCV-IRES nucleotides 1-389 for Luc Neo ET, the NPT gene, the EMCV-IRES directing translation of downstream HCV sequences from NS2 or NS3 up to the authentic 3' end of the genome. HCV Polyprotein of Luc Neo ET replicon harbours the cell culture adaptive mutations E1202G, T1280I, K1846T. G418-resistance is only possible with cells containing high amounts of replicon.
Cells were dissociated the day before addition of compounds and seeded in 96 well-plates at a final concentration of 27 777.77 cells.ml^-1.cm^-2 in 90µl final volume of culture medium per well and were maintained at 37°C and 5% CO2 in a humidified atmosphere for 24 hours. 10 µl of compounds to be tested were added 24 hours after seeding. Final concentration of DMSO was 1 %. Cells were incubated in the presence of compounds for 72 hours after which expression of firefly luciferase reporter gene was quantified. Briefly, culture medium was removed and cells were lysed by addition of 100 µl of lysis buffer containing 125 mM Tris Phosphate ph 7.8, 10 mM EDTA, 5 mM DTT, 50 % glycerol and 5 % Triton. Plates were vortexed 10 min at 1300 rpm. 100µl of luciferin solution 1X were added to each well. Luciferin solution contained 40 mM Tris Phosphate ph 7.8, 0.2 mM EDTA, 67 mM DTT, 2.14 mM MgCl2, 5.4 mM MgSO4, 4.7 x 10^-4 M luciferin, 5.3 x 10^-4 M ATP and 2.7 x 10^-4 M Acetyl co enzyme A. Luminescence was immediately measured with Berthold Microlumat Plus LB 96V luminometer with an integration of 1 sec. Inhibition was calculated using the formula: % inhibition = 1-[(RLUsample-RLUbackground)/(RLUsignal-RLUbackground)].
The Table 1 below illustrates data on the biological activity of compounds of the present invention. Results are expressed as EC50 which is the concentration that produces 50 % of replication inhibition. Table 1. HCV replication inhibition assay

**Q.** CN(C)c1ccc(NC(=O)CC2C(=O)N(c3ccc(F)cc3)C(=S)N2CCc2cccs2)cc1 (stereo not shown) [Example 48, N-[4-(dimethylamino)phenyl]-2-[1-(4-fluorophenyl)-5-oxo-2-sulfanylidene-3-[2-(thiophen-2-yl)ethyl]imidazolidin-4-yl]acetamide] was tested. Which EC50 did it give?
**A.** < 500 nM

**Q.** Which EC50 does the source give for CN(C)c1ccc(CCN2C(=O)N(c3ccc(F)cc3)C(=O)C2CC(=O)Nc2ccc(N(C)C)cc2)cc1 (stereo not shown) [Example 49, N-[4-(dimethylamino)phenyl]-2-(3-{2-[4-(dimethylamino)phenyl]ethyl}-1-(4-fluorophenyl)-2,5-dioxoimidazolidin-4-yl)acetamide] here?
**A.** < 500 nM

**Q.** For COc1ccc(CCN2C(=S)N(c3ccccc3)C(=O)C2CC(=O)Nc2ccc(N(C)C)cc2)cc1 (stereo not shown) [Example 51, N-[4-(dimethylamino)phenyl]-2-{3-[2-(4-methoxyphenyl)ethyl]-5-oxo-1-phenyl-2-sulfanylideneimidazolidin-4-yl}acetamide], which EC50 is on record?
**A.** < 500 nM

**Q.** Which EC50 does the source give for COc1ccc(NC(=O)CC2C(=O)N(c3ccc(F)cc3)C(=S)N2CCc2ccc(N3CCOCC3)cc2)cc1 (stereo not shown) [Example 52, 2-[1-(4-fluorophenyl)-3-{2-[4-(morpholin-4-yl)phenyl]ethyl}-5-oxo-2-sulfanylideneimidazolidin-4-yl]-N-(4-methoxyphenyl)acetamide] here?
**A.** < 500 nM

**Q.** For COCCOc1ccc(NC(=O)CC2C(=O)N(c3ccc(F)cc3)C(=S)N2CCc2ccc(OC)cc2)cc1 (stereo not shown) [Example 53, 2-[1-(4-fluorophenyl)-3-[2-(4-methoxyphenyl)ethyl]-5-oxo-2-sulfanylideneimidazolidin-4-yl]-N-[4-(2-methoxyethoxy)phenyl]acetamide], which EC50 is on record?
**A.** < 500 nM

**Q.** With COc1ccc(CCN2C(=S)N(c3ccc(F)cc3)C(=O)C2CC(=O)Nc2ccc(OC(C)C)cc2)cc1 (stereo not shown) [Example 54, 2-[1-(4-fluorophenyl)-3-[2-(4-methoxyphenyl)ethyl]-5-oxo-2-sulfanylideneimidazolidin-4-yl]-N-[4-(propan-2-yloxy)phenyl]acetamide] as the molecule, how does the EC50 read?
**A.** < 500 nM

**Q.** How did the EC50 turn out when COc1ccc(CCN2C(=S)N(c3ccncc3)C(=O)C2CC(=O)Nc2ccc(OC)cc2)cc1 (stereo not shown) [Example 55, N-(4-methoxyphenyl)-2-{3-[2-(4-methoxyphenyl)ethyl]-5-oxo-1-(pyridin-4-yl)-2-sulfanylideneimidazolidin-4-yl}acetamide] was run?
**A.** < 5000 nM

**Q.** For O=C(CC1C(=O)N(c2ccccc2)C(=S)N1CCc1ccc(Cl)cc1)Nc1ccccn1 (stereo not shown) [Example 57, 2-{3-[2-(4-chlorophenyl)ethyl]-5-oxo-1-phenyl-2-sulfanylideneimidazolidin-4-yl}-N-(pyridin-2-yl)acetamide], which EC50 is on record?
**A.** < 500 nM

**Q.** COc1ccc(NC(=O)CC2C(=O)N(c3ccccc3)C(=S)N2CCc2ccc(Cl)cc2)cn1 (stereo not shown) [Example 59, 2-{3-[2-(4-chlorophenyl)ethyl]-5-oxo-1-phenyl-2-sulfanylideneimidazolidin-4-yl}-N-(6-methoxypyridin-3-yl)acetamide] was tested. Which EC50 did it give?
**A.** < 5000 nM

**Q.** For COc1ccc(NC(=O)CC2C(=O)N(c3ccccc3)C(=S)N2CCc2ccc(Cl)cc2)nc1 (stereo not shown) [Example 61, 2-{3-[2-(4-chlorophenyl)ethyl]-5-oxo-1-phenyl-2-sulfanylideneimidazolidin-4-yl}-N-(5-methoxypyridin-2-yl)acetamide], which EC50 is on record?
**A.** < 500 nM

**Q.** Which EC50 does the source give for O=C(CC1C(=O)N(c2ccccc2)C(=S)N1CCc1ccc(Cl)cc1)Nc1ccon1 (stereo not shown) [Example 64, 2-{3-[2-(4-chlorophenyl)ethyl]-5-oxo-1-phenyl-2-sulfanylideneimidazolidin-4-yl}-N-(1,2-oxazol-3-yl)acetamide] here?
**A.** < 5000 nM

**Q.** For COc1ccc(NC(=O)CC2C(=O)N(c3ccc(F)cc3)C(=S)N2CCc2ccc(Cl)cc2)nc1 (stereo not shown) [Example 66, 2-{3-[2-(4-chlorophenyl)ethyl]-1-(4-fluorophenyl)-5-oxo-2-sulfanylideneimidazolidin-4-yl}-N-(5-methoxypyridin-2-yl)acetamide], which EC50 is on record?
**A.** < 500 nM

**Q.** Which EC50 does the source give for COc1ccc(CCN2C(=S)N(c3ccccc3)C(=O)C2CC(=O)Nc2ccc(C)nn2)cc1 (stereo not shown) [Example 68, 2-{3-[2-(4-methoxyphenyl)ethyl]-5-oxo-1-phenyl-2-sulfanylideneimidazolidin-4-yl}-N-(6-methylpyridazin-3-yl)acetamide] here?
**A.** < 30000 nM

**Q.** With COc1ccc(CCN2C(=S)N(c3ccccc3)C(=O)C2CC(=O)Nc2ccc(OC)nn2)cc1 (stereo not shown) [Example 69, 2-{3-[2-(4-methoxyphenyl)ethyl]-5-oxo-1-phenyl-2-sulfanylideneimidazolidin-4-yl}-N-(6-methoxypyridazin-3-yl)acetamide] as the molecule, how does the EC50 read?
**A.** < 5000 nM

**Q.** For COc1ccc(CCN2C(=O)N(c3ccc(F)cc3)C(=O)C2CC(=O)Nc2ccc(OC)nn2)cc1 (stereo not shown) [Example 71, 2-[1-(4-fluorophenyl)-3-[2-(4-methoxyphenyl)ethyl]-2,5-dioxoimidazolidin-4-yl]-N-(6-methoxypyridazin-3-yl)acetamide], which EC50 is on record?
**A.** < 30000 nM

**Q.** COc1ccc(CCN2C(=O)N(c3ccc(F)cc3)C(=O)C2CC(=O)Nc2ccc(OC)cn2)cc1 (stereo not shown) [Example 72, 2-[1-(4-fluorophenyl)-3-[2-(4-methoxyphenyl)ethyl]-2,5-dioxoimidazolidin-4-yl]-N-(5-methoxypyridin-2-yl)acetamide] was tested. Which EC50 did it give?
**A.** < 5000 nM

**Q.** COc1ccc(CCN2C(=O)N(c3ccc(F)cc3)C(=O)C2CC(=O)Nc2ccc(N(C)C)cn2)cc1 (stereo not shown) [Example 73, N-[5-(dimethylamino)pyridin-2-yl]-2-[1-(4-fluorophenyl)-3-[2-(4-methoxyphenyl)ethyl]-2,5-dioxoimidazolidin-4-yl]acetamide] was tested. Which EC50 did it give?
**A.** < 500 nM

**Q.** Which EC50 does the source give for COc1ccc(CCN2C(=O)N(c3ccc(F)cc3)C(=O)C2CC(=O)Nc2ccc(C)nn2)cc1 (stereo not shown) [Example 74, 2-[1-(4-fluorophenyl)-3-[2-(4-methoxyphenyl)ethyl]-2,5-dioxoimidazolidin-4-yl]-N-(6-methylpyridazin-3-yl)acetamide] here?
**A.** < 30000 nM

**Q.** Which EC50 does the source give for COc1ncc(NC(=O)CC2C(=O)N(c3ccc(F)cc3)C(=O)N2CCc2ccc(N(C)C)cc2)cn1 (stereo not shown) [Example 78, 2-(3-{2-[4-(dimethylamino)phenyl]ethyl}-1-(4-fluorophenyl)-2,5-dioxoimidazolidin-4-yl)-N-(2-methoxypyrimidin-5-yl)acetamide] here?
**A.** < 30000 nM

**Q.** With COc1ncc(NC(=O)CC2C(=O)N(c3ccc(F)cc3)C(=S)N2CCc2ccc(N(C)C)cc2)cn1 (stereo not shown) [Example 79, 2-(3-{2-[4-(dimethylamino)phenyl]ethyl}-1-(4-fluorophenyl)-5-oxo-2-sulfanylideneimidazolidin-4-yl)-N-(2-methoxypyrimidin-5-yl)acetamide] as the molecule, how does the EC50 read?
**A.** < 5000 nM

**Q.** How did the EC50 turn out when COc1ccc(CCN2C(=S)N(c3ccc(F)cc3)C(=O)C2CC(=O)Nc2cnc(OC)nc2)cc1 (stereo not shown) [Example 82, 2-[1-(4-fluorophenyl)-3-[2-(4-methoxyphenyl)ethyl]-5-oxo-2-sulfanylideneimidazolidin-4-yl]-N-(2-methoxypyrimidin-5-yl)acetamide] was run?
**A.** < 5000 nM

**Q.** With COc1ccc(CCN2C(=S)N(c3ccc(F)cc3)C(=O)C2CC(=O)Nc2ccc(OC)cn2)cc1 (stereo not shown) [Example 83, 2-[1-(4-fluorophenyl)-3-[2-(4-methoxyphenyl)ethyl]-5-oxo-2-sulfanylideneimidazolidin-4-yl]-N-(5-methoxypyridin-2-yl)acetamide] as the molecule, how does the EC50 read?
**A.** < 500 nM

**Q.** Which EC50 does the source give for COc1ccc(CCN2C(=S)N(c3ccc(F)cc3)C(=O)C2CC(=O)Nc2ncc(OC)cn2)cc1 (stereo not shown) [Example 84, 2-[1-(4-fluorophenyl)-3-[2-(4-methoxyphenyl)ethyl]-5-oxo-2-sulfanylideneimidazolidin-4-yl]-N-(5-methoxypyrimidin-2-yl)acetamide] here?
**A.** < 500 nM

**Q.** Which EC50 does the source give for COc1ccc(CCN2C(=S)N(c3ccc(F)cc3)C(=O)C2CC(=O)Nc2ccc(OC)cc2F)cc1 (stereo not shown) [Example 85, N-(2-fluoro-4-methoxyphenyl)-2-[1-(4-fluorophenyl)-3-[2-(4-methoxyphenyl)ethyl]-5-oxo-2-sulfanylideneimidazolidin-4-yl]acetamide] here?
**A.** < 500 nM

**Q.** With COc1ccc(CCN2C(=S)N(c3ccc(F)cc3)C(=O)C2CC(=O)Oc2ccc(OC)cc2)cc1 (stereo not shown) [Example 86, 4-methoxyphenyl 2-[1-(4-fluorophenyl)-3-[2-(4-methoxyphenyl)ethyl]-5-oxo-2-sulfanylideneimidazolidin-4-yl]acetate] as the molecule, how does the EC50 read?
**A.** < 30000 nM
